Among the data in US12486267B2, “Imidazo[1,2-A]pyridine and [1,2,4]triazolo[1,5-A]pyridine derivatives as TLR9 inhibitors for the treatment of fibrosis” (BRISTOL-MYERS SQUIBB COMPANY, priority 2020, dated 2025) are IC50 values, retold here.

The structures appear in SMILES notation. A value given as a limit tells only on which side of the number the result lay.

Common to all, as to format: cell-based
The target of one assay is T1, human TLR7 (Homo sapiens, UniProt Q9NYK1).
T1 sequence (Q9NYK1 27-1049): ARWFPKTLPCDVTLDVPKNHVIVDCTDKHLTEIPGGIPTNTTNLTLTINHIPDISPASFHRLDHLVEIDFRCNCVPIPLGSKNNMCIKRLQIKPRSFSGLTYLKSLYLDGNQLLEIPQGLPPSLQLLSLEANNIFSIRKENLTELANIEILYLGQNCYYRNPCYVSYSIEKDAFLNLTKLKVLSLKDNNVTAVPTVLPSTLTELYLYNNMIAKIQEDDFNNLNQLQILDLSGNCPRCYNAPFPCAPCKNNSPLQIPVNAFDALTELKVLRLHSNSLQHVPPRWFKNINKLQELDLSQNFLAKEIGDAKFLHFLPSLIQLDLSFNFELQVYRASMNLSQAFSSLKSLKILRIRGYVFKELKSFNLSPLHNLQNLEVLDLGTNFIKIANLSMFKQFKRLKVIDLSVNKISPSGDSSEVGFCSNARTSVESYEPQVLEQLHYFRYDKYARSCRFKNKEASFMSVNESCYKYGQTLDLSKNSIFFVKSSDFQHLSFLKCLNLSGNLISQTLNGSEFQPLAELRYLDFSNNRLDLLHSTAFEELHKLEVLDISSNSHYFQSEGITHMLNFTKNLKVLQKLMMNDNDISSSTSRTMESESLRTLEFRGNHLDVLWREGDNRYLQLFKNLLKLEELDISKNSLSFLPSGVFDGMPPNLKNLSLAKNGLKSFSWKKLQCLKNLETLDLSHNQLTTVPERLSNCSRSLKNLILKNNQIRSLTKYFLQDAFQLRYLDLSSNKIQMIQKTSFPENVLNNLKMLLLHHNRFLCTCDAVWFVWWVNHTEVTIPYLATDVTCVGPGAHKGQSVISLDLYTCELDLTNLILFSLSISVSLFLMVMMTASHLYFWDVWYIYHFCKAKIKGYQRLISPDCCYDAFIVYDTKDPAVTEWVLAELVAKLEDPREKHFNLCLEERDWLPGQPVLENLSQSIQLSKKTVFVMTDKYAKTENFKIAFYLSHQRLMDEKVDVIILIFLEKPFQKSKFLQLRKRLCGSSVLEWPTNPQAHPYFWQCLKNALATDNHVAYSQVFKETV
In words: TLR7 inhibition reporter assay (HEK-Blue cells, SEAP reporter). Conditions: HEK-Blue cells overexpressing human TLR7; stimulated with gardiquimod 7.5 μM; 22 hour incubation; SEAP readout. How it is done: (§1) TLR7/8/9 Inhibition Reporter Assays
(§2) HEK-Blue™-cells (Invivogen) overexpressing human TLR7, TLR8 or TLR9 receptors were used for screening inhibitors of these receptors using an inducible SEAP (secreted embryonic alkaline phosphatase) reporter gene under the control of the […] minimal promoter fused to five NF-κB and AP-1-binding sites. Briefly, cells are seeded into Greiner 384 well plates (15000 cells per well for TLR7, 20,000 for TLR8 and 25,000 for TLR9) and then treated with test compounds in DMSO to yield a final dose response concentration range of 0.05 nM-50 μM. After a 30 minute compound pre-treatment at room temperature, the cells are then stimulated with a TLR7 ligand (gardiquimod at a final concentration of 7.5 μM), TLR8 ligand (R848 at a final concentration of 15.9 μM) or TLR9 ligand (ODN2006 at a final concentration of 5 nM) to activate NF-κB and AP-1 which induce the production of SEAP. After a 22 hour incubation at 37° C., 5% CO2, SEAP levels are determined with the addition of HEK-Blue™ Detection reagent (Invivogen), a cell culture medium that allows for detection of SEAP, according to manufacturer's specifications. The percent inhibition is determined as the % reduction in the HEK-Blue signal present in wells treated with agonist plus DMSO alone compared to wells treated with a known inhibitor.

In the next assay the target is T2, human TLR9 (Homo sapiens, UniProt Q9NR96).
T2 sequence (Q9NR96 26-1032): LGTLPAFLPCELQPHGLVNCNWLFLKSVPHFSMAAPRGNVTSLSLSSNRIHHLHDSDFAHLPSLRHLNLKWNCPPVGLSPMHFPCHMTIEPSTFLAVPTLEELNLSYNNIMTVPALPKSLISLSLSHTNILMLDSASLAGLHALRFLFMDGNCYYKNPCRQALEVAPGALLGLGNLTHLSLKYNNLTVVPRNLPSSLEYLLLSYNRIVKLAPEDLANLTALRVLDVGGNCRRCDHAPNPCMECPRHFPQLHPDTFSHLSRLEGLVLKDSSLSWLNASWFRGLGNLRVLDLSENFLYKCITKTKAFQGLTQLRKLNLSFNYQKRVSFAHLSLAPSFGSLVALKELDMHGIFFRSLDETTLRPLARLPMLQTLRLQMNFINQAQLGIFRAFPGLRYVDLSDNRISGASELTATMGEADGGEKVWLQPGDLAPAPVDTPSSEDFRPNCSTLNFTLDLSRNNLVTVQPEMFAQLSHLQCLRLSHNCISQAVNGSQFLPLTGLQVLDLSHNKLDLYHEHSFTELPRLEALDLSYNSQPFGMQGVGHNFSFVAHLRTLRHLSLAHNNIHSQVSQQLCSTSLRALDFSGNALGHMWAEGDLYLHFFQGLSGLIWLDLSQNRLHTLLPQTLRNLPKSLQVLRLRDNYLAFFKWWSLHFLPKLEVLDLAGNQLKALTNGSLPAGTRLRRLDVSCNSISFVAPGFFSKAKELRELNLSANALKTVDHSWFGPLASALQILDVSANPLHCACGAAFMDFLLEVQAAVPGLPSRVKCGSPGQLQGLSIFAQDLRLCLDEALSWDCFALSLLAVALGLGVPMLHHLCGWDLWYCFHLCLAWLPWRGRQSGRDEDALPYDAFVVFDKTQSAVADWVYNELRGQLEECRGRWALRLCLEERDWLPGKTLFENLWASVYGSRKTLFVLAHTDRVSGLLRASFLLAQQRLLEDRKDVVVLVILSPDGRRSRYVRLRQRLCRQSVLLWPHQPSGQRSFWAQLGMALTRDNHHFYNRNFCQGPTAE
In words: TLR9 inhibition reporter assay (HEK-Blue cells, SEAP reporter). To be noted: HEK-Blue cells overexpressing human TLR9; stimulated with ODN2006 5 nM; 22 hour incubation; SEAP readout. How it is done: as §1, §2

The target in a further assay is T3, human TLR8 (Homo sapiens, UniProt Q9NR97).
T3 sequence (Q9NR97 27-1041): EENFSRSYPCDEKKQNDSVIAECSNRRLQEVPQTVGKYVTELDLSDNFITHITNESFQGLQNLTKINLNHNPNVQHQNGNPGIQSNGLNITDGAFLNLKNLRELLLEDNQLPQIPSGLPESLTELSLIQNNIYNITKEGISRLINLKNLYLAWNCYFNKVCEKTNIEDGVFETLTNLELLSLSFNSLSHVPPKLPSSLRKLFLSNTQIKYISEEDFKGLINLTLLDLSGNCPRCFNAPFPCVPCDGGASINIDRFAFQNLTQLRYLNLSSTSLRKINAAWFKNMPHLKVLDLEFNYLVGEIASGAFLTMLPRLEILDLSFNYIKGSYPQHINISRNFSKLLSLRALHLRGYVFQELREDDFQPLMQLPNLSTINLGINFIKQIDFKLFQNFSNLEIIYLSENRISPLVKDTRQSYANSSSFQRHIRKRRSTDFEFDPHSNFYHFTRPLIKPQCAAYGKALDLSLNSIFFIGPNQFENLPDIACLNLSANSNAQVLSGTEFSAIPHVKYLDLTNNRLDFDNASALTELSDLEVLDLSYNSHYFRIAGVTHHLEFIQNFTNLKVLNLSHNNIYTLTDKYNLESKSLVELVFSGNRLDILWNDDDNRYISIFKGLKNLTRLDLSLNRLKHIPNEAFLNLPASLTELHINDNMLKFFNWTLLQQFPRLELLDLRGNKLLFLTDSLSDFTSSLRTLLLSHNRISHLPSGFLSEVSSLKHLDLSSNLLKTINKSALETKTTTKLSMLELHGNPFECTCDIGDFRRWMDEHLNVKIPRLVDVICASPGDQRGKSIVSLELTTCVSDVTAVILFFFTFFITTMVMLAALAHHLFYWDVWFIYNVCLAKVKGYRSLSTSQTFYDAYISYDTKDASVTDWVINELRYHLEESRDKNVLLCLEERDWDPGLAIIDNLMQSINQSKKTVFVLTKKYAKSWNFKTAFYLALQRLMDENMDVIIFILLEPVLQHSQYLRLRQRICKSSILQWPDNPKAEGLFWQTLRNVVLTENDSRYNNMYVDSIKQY
In words: TLR8 inhibition reporter assay (HEK-Blue cells, SEAP reporter). To be noted: HEK-Blue cells overexpressing human TLR8; stimulated with R848 15.9 μM; 22 hour incubation; SEAP readout. How it is done:
as §1, §2

In the case of `Cc1cc(C2CCN(C3CCN(C(C)C)CC3)CC2)cc2nc(-c3ccc(S(C)(=O)=O)cc3)cn12` [Example 66, 7-(1′-isopropyl-[1,4′-bipiperidin]-4-yl)-5-methyl-2-(4-(methylsulfonyl)phenyl) imidazo[1,2-a]pyridine], the results for the IC50 against human TLR7, on human TLR9 and against human TLR8 were 14.3 µM, 0.062 µM and more than 50 µM, respectively.

Take `CS(=O)(=O)c1ccc(-c2cn3cc(C4CCN(C5CC6CCC(C5)N6CC5CC5)CC4)cc(F)c3n2)cc1` (single isomer, unassigned) [Example 116, 6-(1-(8-(cyclopropylmethyl)-8-azabicyclo[3.2.1]octan-3-yl)piperidin-4-yl)-8-fluoro-2-(4-(methylsulfonyl)phenyl)imidazo[1,2-a]pyridine]: the IC50 came out at 0.7 µM at human TLR7, 0.0039 µM against human TLR9 and 14 µM on human TLR8.

Consider `CS(=O)(=O)c1ccc(-c2cn3ccc(C4CCN(C5CCN(C6CCOCC6)CC5)CC4)c(F)c3n2)cc1` [Example 133, 8-fluoro-2-(4-(methylsulfonyl)phenyl)-7-(1′-(tetrahydro-2H-pyran-4-yl)-[1,4′-bipiperidin]-4-yl)imidazo[1,2-a]pyridine], for which the figures for the IC50 against human TLR7, against human TLR9 and at human TLR8 were 1.9 µM, 0.006 µM and more than 50 µM, respectively.

As to `Cc1cc(C2CCN(C3CC4CCC(C3)N4CC3CCC3)CC2)cn2cc(-c3ccc(S(C)(=O)=O)cc3)nc12` (single isomer, unassigned) [Example 89, 6-(1-(8-(cyclobutylmethyl)-8-azabicyclo[3.2.1]octan-3-yl)piperidin-4-yl)-8-methyl-2-(4-(methylsulfonyl)phenyl)imidazo[1,2-a]pyridine], the IC50 is 2.2 µM at human TLR7, 0.329 µM against human TLR9 and more than 50 µM at human TLR8.

For `CC(C)N1CCC(N2CCC(c3cc(F)c4nc(-c5ccc(S(C)(=O)=O)cc5)cn4c3)CC2)CC1` [Example 67, 8-fluoro-6-(1′-isopropyl-[1,4′-bipiperidin]-4-yl)-2-(4-(methylsulfonyl)phenyl) imidazo[1,2-a]pyridine], the IC50 is 19.2 µM on human TLR7, 0.043 µM on human TLR9 and more than 50 µM at human TLR8.

As for `COc1ccc(-c2cn3cc(C4CCN(C5CC6(C5)CN(CC5CC5)C6)CC4)cc(C)c3n2)cc1OC` [Example 16, 6-(1-(2-(cyclopropylmethyl)-2-azaspiro[3.3]heptan-6-yl)piperidin-4-yl)-2-(3,4-dimethoxyphenyl)-8-methylimidazo[1,2-a]pyridine], the values for the IC50 against human TLR7, at human TLR9 and on human TLR8 were 2 µM, 0.014 µM and more than 50 µM, respectively.

For `COc1ccc(-c2cn3cc(C4C[C@H]5CC[C@@H](C4)N5C4CCN(C5CC5)CC4)cc(C)c3n2)cc1OC` (mixture of isomers) [Example 24, 6-(8-(1-cyclopropylpiperidin-4-yl)-8-azabicyclo[3.2.1]octan-3-yl)-2-(3,4-dimethoxyphenyl)-8-methylimidazo[1,2-a]pyridine], the IC50 was 2.9 µM against human TLR7, 0.102 µM against human TLR9 and more than 50 µM against human TLR8.

With `CS(=O)(=O)c1ccc(-c2cn3cc(C4CCN(C5CCN(C6CCOCC6)CC5)CC4)cc(F)c3n2)cc1` [Example 112, 8-fluoro-2-(4-(methylsulfonyl)phenyl)-6-(1′-(tetrahydro-2H-pyran-4-yl)-[1,4′-bipiperidin]-4-yl)imidazo[1,2-a]pyridine], the IC50 against human TLR7 is 4.5 µM; against human TLR9, 0.098 µM; against human TLR8 it was more than 50 µM.

As for `CC(C)CN1CCC(N2CCC(c3cn4cc(-c5ccc(S(C)(=O)=O)cc5)nc4cc3F)CC2)CC1` [Example 123, 7-fluoro-6-(1′-isobutyl-[1,4′-bipiperidin]-4-yl)-2-(4-(methylsulfonyl)phenyl) imidazo[1,2-a]pyridine], the IC50 is more than 50 µM against human TLR7, 0.496 µM on human TLR9 and more than 50 µM at human TLR8.

Take `COc1ccc(-c2cn3cc(C4CCN(C5CCN(C(C)C)CC5)CC4)cc(C)c3n2)cc1OC` [Example 2, 2-(3,4-dimethoxyphenyl)-6-(1′-isopropyl-[1,4′-bipiperidin]-4-yl)-8-methylimidazo[1,2-a]pyridine]: the results for the IC50 against human TLR7, at human TLR9 and at human TLR8 were 3.8 µM, 0.052 µM and more than 50 µM, respectively.

One may read the IC50 as the concentration at which inhibition is half-maximal. Read a high IC50 as a need for much substance.
